This passage reports IC50 results from US9902702B2, “Spirocycloheptanes as inhibitors of rock” (BRISTOL-MYERS SQUIBB COMPANY, priority 2014, dated 2018).

pIC50: −log10 of the molar value.

Broadly, the pIC50 is −log10 of the IC50, conventionally taken in molar units.

Sequence of ROCK2 (O75116 whole entry, species assumed): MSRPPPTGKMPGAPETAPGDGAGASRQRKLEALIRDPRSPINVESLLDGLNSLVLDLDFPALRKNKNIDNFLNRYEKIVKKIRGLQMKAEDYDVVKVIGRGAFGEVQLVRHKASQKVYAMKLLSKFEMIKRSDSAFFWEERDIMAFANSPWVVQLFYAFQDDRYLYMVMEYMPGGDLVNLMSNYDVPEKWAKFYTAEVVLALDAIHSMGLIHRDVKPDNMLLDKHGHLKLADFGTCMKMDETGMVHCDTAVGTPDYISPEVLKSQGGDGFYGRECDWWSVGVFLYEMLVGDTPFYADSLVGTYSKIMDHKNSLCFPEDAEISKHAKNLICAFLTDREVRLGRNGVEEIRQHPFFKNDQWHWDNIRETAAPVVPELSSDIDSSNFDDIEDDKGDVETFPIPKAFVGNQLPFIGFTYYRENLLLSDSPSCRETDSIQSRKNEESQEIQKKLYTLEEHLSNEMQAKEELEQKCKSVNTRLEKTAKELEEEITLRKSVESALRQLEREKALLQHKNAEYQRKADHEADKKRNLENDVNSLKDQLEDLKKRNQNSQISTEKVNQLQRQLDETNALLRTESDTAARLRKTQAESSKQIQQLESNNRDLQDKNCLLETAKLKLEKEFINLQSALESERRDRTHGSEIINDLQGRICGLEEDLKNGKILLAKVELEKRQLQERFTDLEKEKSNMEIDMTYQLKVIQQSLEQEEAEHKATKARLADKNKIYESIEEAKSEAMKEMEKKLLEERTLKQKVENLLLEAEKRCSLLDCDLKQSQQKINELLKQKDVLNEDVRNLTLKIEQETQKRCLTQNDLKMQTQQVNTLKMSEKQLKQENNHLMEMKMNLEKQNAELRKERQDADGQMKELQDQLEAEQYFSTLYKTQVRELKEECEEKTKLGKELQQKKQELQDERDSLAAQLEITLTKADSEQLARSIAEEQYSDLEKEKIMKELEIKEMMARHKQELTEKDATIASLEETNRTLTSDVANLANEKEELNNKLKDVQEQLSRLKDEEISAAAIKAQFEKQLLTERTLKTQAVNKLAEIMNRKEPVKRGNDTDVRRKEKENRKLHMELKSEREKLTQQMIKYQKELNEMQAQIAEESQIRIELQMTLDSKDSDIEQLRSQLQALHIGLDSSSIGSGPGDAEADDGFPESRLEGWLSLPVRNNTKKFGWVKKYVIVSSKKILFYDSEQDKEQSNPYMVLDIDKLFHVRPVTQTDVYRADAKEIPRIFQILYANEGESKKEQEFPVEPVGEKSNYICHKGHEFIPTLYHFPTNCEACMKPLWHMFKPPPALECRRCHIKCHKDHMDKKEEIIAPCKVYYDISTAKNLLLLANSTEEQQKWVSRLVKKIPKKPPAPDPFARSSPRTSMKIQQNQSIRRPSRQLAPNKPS

The test addresses ROCK2 (Homo sapiens, UniProt O75116). In words: ROCK assay: phosphorylation of FITC peptide substrate, LABCHIP 3000 mobility shift. The format is biochemical. To be noted: 5 μM ATP, 1.5 μM peptide substrate; read-out: ROCK2 Activity (ROCK IC50 range). The method, then:
The effectiveness of compounds of the present invention as ROCK inhibitors can be determined in a 30 μL assay containing 20 mM HEPES, pH 7.5, 20 mM MgCl2, 0.015% Brij-35, 4 mM DTT, 5 μM ATP and 1.5 μM peptide substrate (FITC-AHA-AKRRRLSSLRA-OH). Compounds were dissolved in DMSO so that the final concentration of DMSO was <2%, and the reaction was initiated with Rho kinase variants. After incubation, the reaction was terminated by the addition of EDTA and the phosphorylated and non-phosphorylated peptides separated using a LABCHIP® 3000 Reader (Caliper Life Sciences). […] Compounds were tested in dose-response format, and the inhibition of kinase activity was calculated at each concentration of compound. The inhibition data were fit using a curve-fitting program to determine the IC50; i.e., the concentration of compound required to inhibit 50% of kinase activity.
Representative Examples were tested in the ROCK assay described above and found having ROCK inhibitory activity.
With `O=C(C1CC2(C1)CC(c1n[nH]c(=O)c3ccccc13)C2)N1CCc2ccccc21` (centres unmarked) [Example 46, 4-(6-(Indoline-1-carbonyl)spiro[3.3]heptan-2-yl)phthalazin-1(2H)-one(2H)-one], the pIC50 is 5.68 to 7.00. The same measure for `O=C(C1CC2(C1)CC(c1n[nH]c(=O)c3ccccc13)C2)N1Cc2ccccc2C1` (centres unmarked) [Example 47, 4-[6-(2,3-dihydro-1H-isoindole-2-carbonyl)spiro[3.3]heptan-2-yl]-1,2-dihydrophthalazin-1-one]: 5.68 to 7.00.

In the case of `Cc1nnc(NC(=O)C2CC3(C2)CC(c2n[nH]c(=O)c4ccccc24)C3)s1` (centres unmarked) [Example 48, N-(5-methyl-1,3,4-thiadiazol-2-yl)-6-(4-oxo-3,4-dihydrophthalazin-1-yl)spiro[3.3]heptane-2-carboxamide], the pIC50 was 5.68 to 7.00. For the compound `Cc1cc(NC(=O)C2CC3(C2)CC(c2n[nH]c(=O)c4ccccc24)C3)no1` (centres unmarked) [Example 49, N-(5-methyl-1,2-oxazol-3-yl)-6-(4-oxo-3,4-dihydrophthalazin-1-yl)spiro[3.3]heptane-2-carboxamide], the pIC50 is 5.68 to 7.00. The value for `[H][C@]1(c2n[nH]c(=O)c3ccccc32)C[C@]2(C[C@@H](NC(=O)N3CCc4ccccc43)C2)C1` (stereo partly drawn) [Example 50, N-((aR)-6-(4-Oxo-3,4-dihydrophthalazin-1-yl)spiro[3.3]heptan-2-yl)indoline-1-carboxamide] was 7.82 to 8.29. The value for `O=C(N[C@H]1CC2(C1)C[C@H](c1n[nH]c(=O)c3ccccc31)C2)N1Cc2ccccc2C1` (stereo partly drawn) [Example 51, N-((aR)-6-(4-Oxo-3,4-dihydrophthalazin-1-yl)spiro[3.3]heptan-2-yl)isoindoline-2-carboxamide] was 7.82 to 8.29; that for `O=C(CC1CC2(C1)CC(c1n[nH]c(=O)c3ccccc13)C2)N1CCc2ccccc21` (centres unmarked) [Example 52, 4-(6-(2-(Indolin-1-yl)-2-oxoethyl)spiro[3.3]heptan-2-yl)phthalazin-1(2H)-one] was 7.00 to 7.82. The value for `Cc1sc(N2CC[C@@H](F)C2)nc1C(=O)N[C@H]1CC2(C1)C[C@H](c1n[nH]c(=O)c3ccccc31)C2` (stereo partly drawn) [Example 53, 2-((R)-3-fluoropyrrolidin-1-yl)-5-methyl-N-((aR)-6-(4-oxo-3,4-dihydrophthalazin-1-yl)spiro[3.3]heptan-2-yl)thiazole-4-carboxamide] was 8.30 to 8.70.

On to `Cc1sc(N2CCC(F)(F)C2)nc1C(=O)NC1CC2(C1)CC(c1n[nH]c(=O)c3ccccc13)C2` [Example 54, 2-(3,3-difluoropyrrolidin-1-yl)-5-methyl-N-((aR)-6-(4-oxo-3,4-dihydrophthalazin-1-yl)spiro[3.3]heptan-2-yl)thiazole-4-carboxamide], for which the pIC50 was 8.70 to 9.70. As for `Cc1sc(N2CCC(C#N)C2)nc1C(=O)NC1CC2(C1)CC(c1n[nH]c(=O)c3ccccc13)C2` [Example 55, 2-((S)-3-cyanopyrrolidin-1-yl)-5-methyl-N-((aR)-6-(4-oxo-3,4-dihydrophthalazin-1-yl)spiro[3.3]heptan-2-yl)thiazole-4-carboxamide], the pIC50 was 7.82 to 8.29. The same measure for `Cc1sc(N2CCC(C#N)C2)nc1C(=O)NC1CC2(C1)CC(c1n[nH]c(=O)c3ccccc13)C2` [Example 56, 2-((R)-3-cyanopyrrolidin-1-yl)-5-methyl-N-((aR)-6-(4-oxo-3,4-dihydrophthalazin-1-yl)spiro[3.3]heptan-2-yl)thiazole-4-carboxamide]: 7.82 to 8.29. The value for `Cc1sc(NC2CC(F)(F)C2)nc1C(=O)NC1CC2(C1)CC(c1n[nH]c(=O)c3ccccc13)C2` [Example 57, 2-((3,3-difluorocyclobutyl)amino)-5-methyl-N-((aR)-6-(4-oxo-3,4-dihydrophthalazin-1-yl)spiro[3.3]heptan-2-yl)thiazole-4-carboxamide] was 7.82 to 8.29; that for `Cc1sc(N2CCC(F)C2)nc1C(=O)NC1CC2(C1)CC(c1n[nH]c(=O)c3ccccc13)C2` [Example 58, 2-((S)-3-fluoropyrrolidin-1-yl)-5-methyl-N-((aR)-6-(4-oxo-3,4-dihydrophthalazin-1-yl)spiro[3.3]heptan-2-yl)thiazole-4-carboxamide] was 8.30 to 8.70. In the case of `Cc1sc(N2CCCC2C(F)(F)F)nc1C(=O)NC1CC2(C1)CC(c1n[nH]c(=O)c3ccccc13)C2` [Example 59, 5-methyl-N-((aR)-6-(4-oxo-3,4-dihydrophthalazin-1-yl)spiro[3.3]heptan-2-yl)-2-((S)-2-(trifluoromethyl)pyrrolidin-1-yl)thiazole-4-carboxamide], the pIC50 was 7.82 to 8.29. The same measure for `Cc1sc(N2CCCC2C(F)(F)F)nc1C(=O)NC1CC2(C1)CC(c1n[nH]c(=O)c3ccccc13)C2` [Example 60, 5-methyl-N-((aR)-6-(4-oxo-3,4-dihydrophthalazin-1-yl)spiro[3.3]heptan-2-yl)-2-((R)-2-(trifluoromethyl)pyrrolidin-1-yl)thiazole-4-carboxamide]: 7.00 to 7.82; for `COc1ccc2c(c1)c(C(=O)NC1CC3(C1)CC(c1n[nH]c(=O)c4ccccc14)C3)nn2CC(C)(C)O` [Example 61, 1-(2-hydroxy-2-methylpropyl)-5-methoxy-N-((aR)-6-(4-oxo-3,4-dihydrophthalazin-1-yl)spiro[3.3]heptan-2-yl)-1H-indazole-3-carboxamide]: 8.30 to 8.70. As to `COc1ccc2c(C(=O)NC3CC4(C3)CC(c3n[nH]c(=O)c5ccccc35)C4)nn(CC(C)(C)O)c2c1` [Example 62, 1-(2-hydroxy-2-methylpropyl)-6-methoxy-N-((aR)-6-(4-oxo-3,4-dihydrophthalazin-1-yl)spiro[3.3]heptan-2-yl)-1H-indazole-3-carboxamide], the pIC50 was 8.70 to 9.70.

Regarding `COc1ccc2c(C(=O)NC3CC4(C3)CC(c3n[nH]c(=O)c5ccccc35)C4)cnn2c1` [Example 63, 6-methoxy-N-((aR)-6-(4-oxo-3,4-dihydrophthalazin-1-yl)spiro[3.3]heptan-2-yl)pyrazolo[1,5-a]pyridine-3-carboxamide], the pIC50 was 8.70 to 9.70. The value for `COc1ccn2ncc(C(=O)NC3CC4(C3)CC(c3n[nH]c(=O)c5ccccc35)C4)c2c1` [Example 64, 5-methoxy-N-((aR)-6-(4-oxo-3,4-dihydrophthalazin-1-yl)spiro[3.3]heptan-2-yl)pyrazolo[1,5-a]pyridine-3-carboxamide] was 7.82 to 8.29; that for `CC(C)(O)Cn1nc(C(=O)NC2CC3(C2)CC(c2n[nH]c(=O)c4ccccc24)C3)c2cc(F)ccc21` [Example 65, 5-fluoro-1-(2-hydroxy-2-methylpropyl)-N-((aR)-6-(4-oxo-3,4-dihydrophthalazin-1-yl)spiro[3.3]heptan-2-yl)-1H-indazole-3-carboxamide] was 8.30 to 8.70. As for `CC(C)(O)Cn1cc(C(=O)NC2CC3(C2)CC(c2n[nH]c(=O)c4ccccc24)C3)c2cccnc21` [Example 66, 1-(2-hydroxy-2-methylpropyl)-N-((aR)-6-(4-oxo-3,4-dihydrophthalazin-1-yl)spiro[3.3]heptan-2-yl)-1H-pyrrolo[2,3-b]pyridine-3-carboxamide], the pIC50 was 7.82 to 8.29.

For `CC(C)(O)COc1ccc2c(C(=O)NC3CC4(C3)CC(c3n[nH]c(=O)c5ccccc35)C4)cnn2c1` [Example 67, 6-(2-hydroxy-2-methylpropoxy)-N-((aR)-6-(4-oxo-3,4-dihydrophthalazin-1-yl)spiro[3.3]heptan-2-yl)pyrazolo[1,5-a]pyridine-3-carboxamide], the pIC50 is 8.30 to 8.70. The same measure for `O=C(NC1CC2(C1)CC(c1n[nH]c(=O)c3ccccc13)C2)c1cnn2cc(OCCN3CCOCC3)ccc12` [Example 68, 6-(2-morpholinoethoxy)-N-((aR)-6-(4-oxo-3,4-dihydrophthalazin-1-yl)spiro[3.3]heptan-2-yl)pyrazolo[1,5-a]pyridine-3-carboxamide]: 8.30 to 8.70. As for `O=C(NC1CC2(C1)CC(c1n[nH]c(=O)c3ccccc13)C2)c1cnc(N2CCOCC2)s1` [Example 69, 2-morpholino-N-((aR)-6-(4-oxo-3,4-dihydrophthalazin-1-yl)spiro[3.3]heptan-2-yl)thiazole-5-carboxamide], the pIC50 is 8.30 to 8.70. In the case of `O=C(NC1CC2(C1)CC(c1n[nH]c(=O)c3ccccc13)C2)c1cnc(N2CCCC2)s1` [Example 70, N-((aR)-6-(4-oxo-3,4-dihydrophthalazin-1-yl)spiro[3.3]heptan-2-yl)-2-(pyrrolidin-1-yl)thiazole-5-carboxamide], the pIC50 was 8.30 to 8.70. For the compound `O=C(NC1CC2(C1)CC(c1n[nH]c(=O)c3ccccc13)C2)c1noc2ccccc12` [Example 71, N-((aR)-6-(4-oxo-3,4-dihydrophthalazin-1-yl)spiro[3.3]heptan-2-yl)benzo[d]isoxazole-3-carboxamide], the pIC50 is 7.82 to 8.29. For `CC(C)(O)Cn1cc(C(=O)NC2CC3(C2)CC(c2n[nH]c(=O)c4ccccc24)C3)c2ccccc21` [Example 72, 1-(2-hydroxy-2-methylpropyl)-N-((aR)-6-(4-oxo-3,4-dihydrophthalazin-1-yl)spiro[3.3]heptan-2-yl)-1H-indole-3-carboxamide], the negative-log IC50 (pIC50) is 8.70 to 9.70. Turning to `O=C(NC1CC2(C1)CC(c1n[nH]c(=O)c3ccccc13)C2)c1cnn2ccc(OCCN3CCOCC3)cc12` [Example 73, 5-(2-morpholinoethoxy)-N-((aR)-6-(4-oxo-3,4-dihydrophthalazin-1-yl)spiro[3.3]heptan-2-yl)pyrazolo[1,5-a]pyridine-3-carboxamide], the negative-log IC50 (pIC50) is 8.30 to 8.70.

Take `O=C(NC1CC2(C1)CC(c1n[nH]c(=O)c3ccccc13)C2)c1cnn2ccccc12` [Example 74, N-((aR)-6-(4-oxo-3,4-dihydrophthalazin-1-yl)spiro[3.3]heptan-2-yl)pyrazolo[1,5-a]pyridine-3-carboxamide]: the pIC50 is 8.30 to 8.70.
